Legend:
Format in all cases: binding, human
[1] = test system: USP8 MIT domain; assay: SPOT array of predicted peptides from known interactors, USP8 MIT domain; conditions: for Percentage (%) normalized to highest intensity and corrected for background: SPOT array, GST-tagged MIT 100 µM, overnight 4 °C, chemiluminescence, highest intensity = DNAJB6; for Percentage (%): Supplementary Fig. 4B, normalized to the highest intensity and corrected for background
Excerpt: To further assess the SLiM-based interactions of the USP8 MIT domain, we designed a peptide array tiling 24 potential binding sites in previously reported USP8 interactors. We used SLiMSearch to search for peptides that contain shorter or longer matches to the motif (Supplementary Table S4A). […] The DNAJB6_118 - 130 peptide was predicted as a binder based on a partial DFx{2,3}R motif. The DNAJB6-USP8 interaction is supported by previous GST-pulldown experiments and colocalization of the two proteins in male mouse germ cells, and the interaction is thought to be of importance to the protein quality control to yield functional spermatozoa. In the case of the CDH1_863 - 877 peptide it was predicted as USP8 MIT ligand based on the presence of an RFxxL motif. The previous support of the CDH1-USP8 interaction is based on proximity labelling mass spectrometry, and our results thus provide evidence for a binary interaction between the two proteins and define a binding site. To confirm that the motifs used to predict the interactions were of importance for binding we designed an alanine scanning peptide SPOT array analysis of the DNAJB6_118 - 130 and the CDH1_863 - 877 peptides. […] In summary, we find that the USP8 MIT domain binds to a MIM1-like motif that can be expressed by [[…]], as well as degenerate variants thereof. […] The membranes of predicted peptides were purchased by JPT Peptide Technologies (Berlin, Germany). The membranes were incubated with blocking buffer containing 5% skim milk in TBST (50 mM Tris, 150 mM NaCl pH 7.5, 0.05% Tween-20) for two hours at room temperature. The blocked membranes were incubated with GST-tagged proteins (100 μM for MIT domain and 150 μM for the Rhodanese domain) in blocking buffer overnight at 4 °C. After rinsed with TBST the membranes were incubated with HRP-conjugated anti-GST antibody (Cytiva, RPN1236; 1:3000 dilution) in blocking buffer for 1 h at 4 °C and subsequently rinsed with TBST to remove any excess antibody. The ECL reagent (Clarity Max Western ECL substrate, 1705062, BioRad) was used for chemiluminescence read-out with the ChemiDoc Imaging system (BioRad). The images were analysed with Fiji (ImageJ2 version 2.9.0). […] used to design the peptide arrays with known interactors predicted to contain the motifs. The background signal intensity was subtracted, and the corrected signal intensities were normalized to the positive control and presented as percentage.

[2] = test system: USP8 MIT domain; assay: Proteomic peptide-phage display (ProP-PD) selection against USP8 MIT domain; design: Confidence: scale not given here; conditions: for NGS counts (%): ProP-PD, human disorderome library, GST-tagged MIT bait, four rounds of selection, percent of NGS counts associated with each peptide, Fig. 1B; for max_counts: Total NGS counts; for Confidence: calculated based on four metrics: overlapping peptides, replicated peptides, motif match, peptide counts; for Counts: fraction of NGS counts for a selection; for Promiscuity: number of baits selections where the peptide has been observed, calculated on the domain level; for Replicates: number of screens against the bait protein in which the peptide has been found; for Specificity: proportion for the current bait of the total NGS read counts of the peptide for all baits screened with this library
Experimental: We explored the peptide-binding of the USP8 MIT domain by using the purified GST-tagged MIT domain as bait in proteomic peptide-phage display (ProP-PD) selections and a library designed to display the predicted unstructured regions of the human proteome. The peptide-coding regions of the binding-enriched phage pools were analysed by next-generation sequencing (NGS). After filtering for high confidence ligands, ten ligands remained (Fig. 1B; Supplementary Table S1). None of the ten identified protein-protein interactions had been previously reported, based on comparison with the information available in IntAct, HIPPIE and BioGrid (February 2025). Of the USP8 interacting proteins found, the D site-binding protein (DBP), which is a clock-controlled transcription factor, appears as an interesting ligand as USP8 has been reported to be involved in controlling the circadian rhythm. Also, the CCDC88A-encoded protein Girdin is an interactor of potential biological relevance as it is a scaffolding protein involved in the EGFR pathway which USP8 is known to regulate. At the motif level, there was no shared consensus motif among the ten peptide ligands. However, by manual inspection we noticed that four of the peptides contained a shared [LI]xxR[IY]xxL sequence, which appears to be a variation of the [DE]xxLxxRLxxL[KR] MIM1 motif described in the Eukaryotic Linear Motif resource (ELM) (Fig. 1B). We performed a SPOT array alanine scanning analysis in which peptides are synthesised on a membrane, and where each amino acid position of the peptide is mutated to alanine (or glycine if alanine is in the wild type peptide) to evaluate the effect of the amino acid residues in binding. We tested two peptides containing the apparent MIM1-like motif, one from Girdin (Girdin1192 − 1207) and one from the histone-lysine N-methyltransferase SETD1B (SETD1B492 − 507). […] AlphaFold3 (AF3) modelling of the four peptides with the variant MIM1 motif and the MIT domain docked the peptides with high confidence (ipTM scores: HIVEP1_741 − 756: 0.87, Girdin1192 − 1207: 0.85, MLPH481 − 496: 0.82, SETD1B492 − 507: 0.75) at the expected MIM1 binding pocket (Fig. 1D). […] However, the USP8 MIT selection was dominated (more than 94% of NGS counts) by two peptides that lack an apparent MIM1 motif. The two peptides were from the EF-hand calcium-binding domain-containing protein 12 (EFCAB12_1 − 16: […]) and from DBP (DBP116 − 131: […]) (Fig. 1B). […] In comparison to this, the EFCAB12_1 − 16 peptide shares a potential Dx[YF]xxxH[SG] motif with the DBP116 − 131 (Fig. 1B). […] The AF3 model of DBP116 − 131 peptide supports the interaction of D120 of the DBP116 − 131 peptide with the residues K74 and N71 in the MIT domain (Fig. 1G), emphasizing the significance of the aspartic acid at this position. […] Of them, two peptides (SYNE2_853 − 868 and PKNOX1_56 − 71) where placed in the same binding site as the Girdin and DBP peptides with high confidences by AF3 modelling (ipTM 0.92 and 0.74; Supplementary Fig. S3).
Four rounds of phage selections were carried out using the second generation human disorderome library or the constructed deep mutational scanning library. At least three individual replicates were used for each bait protein. 10 µg of GST-tagged proteins or GST control (diluted in PBS from the stock of proteins kept in the purification elution buffer) were immobilized in 100 µL PBS on a 96-well MaxiSorp (Nunc) plate overnight at 4 °C. The plates were incubated with blocking buffer (with 0.5% BSA in PBS) for 1 h at 4 °C followed by washing with 0.05% Tween 20 in PBS four times. The naïve phage library (10^11 CFU) was diluted in 1/5th volume PEG/NaCl (20% PEG-8000, 0.4 M NaCl) and 1X PBS, incubated on ice for 10 min and centrifuged at 10,000 [drawing 3] g for 10 min. The pellet was resuspended in the volume of PBS (100 µL/ well). […]

[3] = test system: USP8 MIT domain; assay: Peptide-phage display-based deep mutational scanning (DMS), USP8 MIT domain; conditions: for DMS-derived binding motif: M13 phage, triplicate selections in biological replicates, NGS, PSSM
Method in brief: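 Four rounds of phage selection against immobilized GST-tagged bait (GST control pre-clearing) at 4 °C, using human disorderome or 16-mer deep mutational scanning library (all non-Cys substitutions), ≥3 replicates. Enriched pools sequenced by Illumina NGS; replicate-summed counts converted to averaged fractions and frequency PSSMs per wild-type peptide.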

Sequence | Percentage (%) normalized to highest intensity and corrected for background [1] | Percentage (%) [1] | NGS counts (%) [2] | max_counts [2] | Confidence [2] | Counts [2] | Promiscuity [2] | Replicates [2] | Specificity [2] | PSSM score, enrichment_relative_to_wt ([3]; EFCAB12 MDDDYEAYHSLFLSLL, library USP8_DMS, days 2,3, quotient of wild type and mutant frequencies per column, highest divided by lowest) | DMS-derived binding motif [3]
RFVVALVLLNVAAA [TGOLN2, Trans-Golgi network integral membrane protein 2 peptide] | -4.72% | -5% |  |  |  |  |  |  |  |  | 
GELLLLSLLLLLEP [PDGFRB, Platelet-derived growth factor receptor beta peptide] | -3.37% | -3% |  |  |  |  |  |  |  |  | 
KEPDALTLLAPAAG [HIF1A, Hypoxia-inducible factor 1-alpha peptide] | -0.189% | 0% |  |  |  |  |  |  |  |  | 
RGVLALALLALALC [RNF149, E3 ubiquitin-protein ligase RNF149 peptide] | 3% | 3% |  |  |  |  |  |  |  |  | 
APLLCLALLPALAA [NOTCH1, Neurogenic locus notch homolog protein 1 peptide] | 2% | 2% |  |  |  |  |  |  |  |  | 
TKTLEERISKLISDNE [HIVEP1_741 − 756, Zinc finger protein 40 peptide] |  |  | 0.21% | 19 | 2 | 0.001178 | 1 | 2 | 1 |  | 
NKTLEYKIEILEKT [KIF23, Kinesin-like protein KIF23 peptide] | 7% | 7% |  |  |  |  |  |  |  |  | 
QAIYRHPLFPLLALLF [PKNOX1_56 − 71, Homeobox protein PKNOX1 peptide] |  |  | 0.95% | 107 | 2 | 0.001294 | 21 | 1 | 0.5 |  | 
PPSSSLELLASLTP [PTPN23, Tyrosine-protein phosphatase non-receptor type 23 peptide] | -7% | -7% |  |  |  |  |  |  |  |  | 
MDLLFGRRKTPEELL [CHMP2A, Charged multivesicular body protein 2a peptide] | -8% | -8% |  |  |  |  |  |  |  |  | 
MDDDYEAYHSLFLSLL [EFCAB12_1 − 16] |  |  | 78.22% | 3851 | 3 | 0.08013 | 6 | 6 | 0.9605 | 1 | [DE]Fx{2,3}R[FY]xxLL
MVSWGRFICLVVVTM [FGFR2, Fibroblast growth factor receptor 2 peptide] | 2.8% | 3% |  |  |  |  |  |  |  |  | 
SGETDLKLLEESIA [NR3C1, Glucocorticoid receptor peptide] | -4.47% | -4% |  |  |  |  |  |  |  |  | 
DDLSRRFEELKKKT [IST1, IST1 homolog peptide] | 5% | 5% |  |  |  |  |  |  |  |  | 
HRRVRTEGKESSSASR [CACNA1E, Voltage-dependent R-type calcium channel subunit alpha-1E peptide 923-938] |  |  | 0.87% | 96 | 2 | 0.001177 | 3 | 2 | 0.7101 |  | 
SEENGLPLLVLPPP [SHANK1 A11, SHANK1 peptide, array position A11] | -5.69% | -6% |  |  |  |  |  |  |  |  | 
HDSLDSRIEMLLKEQR [SETD1B 496-511, Histone-lysine N-methyltransferase SETD1B peptide, overlapping] |  |  |  | 7 | 2 | 0.0001221 | 1 | 3 | 1 |  | 
SEVSDIESRIAALRAA [MLPH481 − 496, melanophilin peptide] |  |  | 0.52% | 33 | 3 | 0.000511 | 2 | 3 | 0.9365 |  | [DE]Fx{2,3}R[FY]xxLL
VLSKRKGGNVGKSKRD [ERVK-21, Endogenous retrovirus group K member 21 Env polyprotein peptide 676-691] |  |  | 0.16% | 18 | 2 | 0.000837 | 4 | 1 | 0.5806 |  | 
DKEIDLELLQDLME [BIRC6, Baculoviral IAP repeat-containing protein 6 peptide] | 12% | 12% |  |  |  |  |  |  |  |  | 

Source: PMC12057046, “Elucidation of short linear motif-based interactions of the MIT and rhodanese domains of the ubiquitin-specific protease 8” (Biology Direct, 2025)
